# Measurements: ChEMBL document CHEMBL4052759, “Discovery of DS79182026: A potent orally active hepcidin production inhibitor” (Bioorg Med Chem Lett, 2017)
# Test system: not listed separately
# Test: AUC in C57BL/6J mouse at 30 mg/kg, po by LC-MS/MS analysis
# Format: ADME, organism-based
# Conditions: in vivo
row,AUC [ng·h/mL],SMILES
1,890,O=C(Nc1n[nH]c2cc(-c3ccc(O)cc3)ccc12)c1ccc(OCCN2CCOCC2)cc1

# Test system: not listed separately
# Test: Cmax in C57BL/6J mouse at 30 mg/kg, po by LC-MS/MS analysis
# Format: ADME, organism-based
# Design: dose 30 mg/kg, route oral
# Conditions: in vivo
row,Cmax [ng/mL],SMILES
1,320,O=C(Nc1n[nH]c2cc(-c3ccc(O)cc3)ccc12)c1ccc(OCCN2CCOCC2)cc1

# Test system: not listed separately
# Test: Metabolic stability in mouse liver microsomes assessed as […] by measuring parent compound remaining at 1 uM after 0.5 hrs by LC-MS/MS analysis
# Format: ADME
# Conditions: read-out: Stability
row,"remaining at 0.5 h, 1 µM [%]",SMILES
1,76,O=C(Nc1n[nH]c2cc(-c3ccc(O)cc3)ccc12)c1ccc(OCCN2CCOCC2)cc1

# Test system: not listed separately
# Test: Tmax in C57BL/6J mouse at 30 mg/kg, po by LC-MS/MS analysis
# Format: ADME, organism-based
# Conditions: in vivo
row,Tmax [h],SMILES
1,1.5,O=C(Nc1n[nH]c2cc(-c3ccc(O)cc3)ccc12)c1ccc(OCCN2CCOCC2)cc1

# Test system: HepG2
# Test: Inhibition of human recombinant BMP6-stimulated hepcidin mRNA expression in human HepG2 cells after 6 hrs by qRT-PCR analysis
# Format: functional, cell-based
# Conditions: HepG2, 6 h
row,IC50 [nM],SMILES
1,4400,CNC(=O)c1n[nH]c(C)c1-c1ccc2c(NC(=O)OC)noc2c1
2,82,Cc1[nH]nc(C2CC2)c1-c1ccc2c(NC(=O)C3CC3)n[nH]c2c1
3,210,COC(=O)Nc1noc2cc(-c3c(C4CC4)n[nH]c3C)ccc12
4,580,COC(=O)Nc1noc2cc(-c3c(C)n[nH]c3C)ccc12
5,1200,COC(=O)Nc1noc2cc(-c3c(C(C)O)n[nH]c3C)ccc12 (centres undefined)
6,330,Cc1n[nH]c(C)c1-c1ccc2c(NC(=O)C3CC3)n[nH]c2c1
7,47,Cc1[nH]nc(-c2ccccn2)c1-c1ccc2c(NC(=O)OCCF)noc2c1
8,2600,COC(=O)Nc1noc2cc(-c3c(-c4cc(C)ccn4)n[nH]c3C)ccc12
9,> 30000,O=C(Nc1n[nH]c2cc(-c3cc[nH]c3)ccc12)C1CC1
10,540,COC(=O)Nc1noc2cc(-c3c(-c4ccccc4)n[nH]c3C)ccc12
11,> 10000,COC(=O)Nc1noc2cc(-c3c(C(C)(C)C)n[nH]c3C)ccc12
12,460,CCc1n[nH]c(C)c1-c1ccc2c(NC(=O)OC)noc2c1
13,4800,COC(=O)Nc1noc2cc(-c3c(-c4ncccc4C)n[nH]c3C)ccc12
14,1000,Cc1noc(C)c1-c1ccc2c(NC(=O)C3CC3)n[nH]c2c1
15,910,COC(=O)Nc1noc2cc(-c3c(C(C)C)n[nH]c3C)ccc12
16,260,Cc1n[nH]c(C)c1-c1ccc2c(NC(=O)c3ccc(OCCN4CCCCC4)cc3)n[nH]c2c1
17,2900,COC(=O)Nc1noc2cc(-c3c(C(=O)OC)n[nH]c3C)ccc12
18,11000,O=C(Nc1n[nH]c2cc(-c3cnc4[nH]ccc4c3)ccc12)C1CC1

row,IC50 [nM],SMILES
1,400,COC(=O)Nc1noc2cc(-c3c(-c4cccc(OC)n4)n[nH]c3C)ccc12
2,> 30000,O=C1Cc2cc(-c3ccc4c(NC(=O)C5CC5)n[nH]c4c3)ccc2N1
3,1400,Cc1[nH]nc(C2CC2)c1-c1ccc2c(N)noc2c1
4,400,O=C(Nc1n[nH]c2cc(-c3ccc(O)cc3)ccc12)C1CC1
5,69,COCCOC(=O)Nc1noc2cc(-c3c(-c4ccccn4)n[nH]c3C)ccc12
6,350,COC(=O)Nc1noc2cc(-c3c(-c4cccnn4)n[nH]c3C)ccc12
7,40,CCOC(=O)Nc1noc2cc(-c3c(-c4ccccn4)n[nH]c3C)ccc12
8,2900,COC(=O)Nc1noc2cc(-c3c(-c4ccncn4)n[nH]c3C)ccc12
9,1100,COCc1n[nH]c(C)c1-c1ccc2c(NC(=O)OC)noc2c1
10,> 3000,O=C(Nc1n[nH]c2cc(-c3ccc4[nH]cnc4c3)ccc12)C1CC1
11,720,CCNC(=O)Nc1noc2cc(-c3c(C4CC4)n[nH]c3C)ccc12
12,7200,O=C(Nc1n[nH]c2cc(-c3ccncc3)ccc12)C1CC1
13,42,COC(=O)Nc1noc2cc(-c3c(-c4cccc(C)n4)n[nH]c3C)ccc12
14,130,O=C(Nc1n[nH]c2cc(-c3ccc(O)cc3)ccc12)c1ccc(OCCN2CCOCC2)cc1
15,210,COC(=O)Nc1noc2cc(-c3c(-c4cnccn4)n[nH]c3C)ccc12
16,160,Cc1[nH]nc(-c2ccccn2)c1-c1ccc2c(NC(=O)OC(C)C)noc2c1
17,2600,COC(=O)Nc1noc2cc(-c3c(-c4cccc(C(C)C)n4)n[nH]c3C)ccc12
